# Data: ChEMBL document CHEMBL5465560, “Selectivity Literature for EUbOPEN Chemogenomic Library” (2024)
# Legend:
# [1] = target: PAS domain-containing serine/threonine-protein kinase (Homo sapiens) (UniProt Q96RG2); assay: Selectivity interaction (Upstate Kinase Profiler service (Millipore)) EUB0000056c PASK; conditions: at 1 µM
# [2] = target: Mitogen-activated protein kinase 9 (Homo sapiens, UniProt P45984); assay: Selectivity interaction (KinomeScan (DiscoverX)) EUB0000695a MAPK9; conditions: at 100 nM
# Chain of Mitogen-activated protein kinase 9 (P45984 whole entry, looked up): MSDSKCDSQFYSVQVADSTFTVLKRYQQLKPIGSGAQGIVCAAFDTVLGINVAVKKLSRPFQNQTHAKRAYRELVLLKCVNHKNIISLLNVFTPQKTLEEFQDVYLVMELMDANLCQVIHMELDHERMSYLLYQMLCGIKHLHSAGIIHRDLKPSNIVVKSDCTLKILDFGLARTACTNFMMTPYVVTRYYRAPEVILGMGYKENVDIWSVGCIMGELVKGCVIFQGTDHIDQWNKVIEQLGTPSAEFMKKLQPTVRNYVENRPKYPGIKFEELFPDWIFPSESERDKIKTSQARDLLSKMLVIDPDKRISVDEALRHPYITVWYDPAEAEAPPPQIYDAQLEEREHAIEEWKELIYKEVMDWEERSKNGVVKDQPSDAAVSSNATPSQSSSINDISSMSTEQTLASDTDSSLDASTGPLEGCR
# [3] = target: T1, Serine/threonine-protein kinase D1 (Homo sapiens) (UniProt Q15139); conditions: at 10 µM
# T1 sequence (whole entry): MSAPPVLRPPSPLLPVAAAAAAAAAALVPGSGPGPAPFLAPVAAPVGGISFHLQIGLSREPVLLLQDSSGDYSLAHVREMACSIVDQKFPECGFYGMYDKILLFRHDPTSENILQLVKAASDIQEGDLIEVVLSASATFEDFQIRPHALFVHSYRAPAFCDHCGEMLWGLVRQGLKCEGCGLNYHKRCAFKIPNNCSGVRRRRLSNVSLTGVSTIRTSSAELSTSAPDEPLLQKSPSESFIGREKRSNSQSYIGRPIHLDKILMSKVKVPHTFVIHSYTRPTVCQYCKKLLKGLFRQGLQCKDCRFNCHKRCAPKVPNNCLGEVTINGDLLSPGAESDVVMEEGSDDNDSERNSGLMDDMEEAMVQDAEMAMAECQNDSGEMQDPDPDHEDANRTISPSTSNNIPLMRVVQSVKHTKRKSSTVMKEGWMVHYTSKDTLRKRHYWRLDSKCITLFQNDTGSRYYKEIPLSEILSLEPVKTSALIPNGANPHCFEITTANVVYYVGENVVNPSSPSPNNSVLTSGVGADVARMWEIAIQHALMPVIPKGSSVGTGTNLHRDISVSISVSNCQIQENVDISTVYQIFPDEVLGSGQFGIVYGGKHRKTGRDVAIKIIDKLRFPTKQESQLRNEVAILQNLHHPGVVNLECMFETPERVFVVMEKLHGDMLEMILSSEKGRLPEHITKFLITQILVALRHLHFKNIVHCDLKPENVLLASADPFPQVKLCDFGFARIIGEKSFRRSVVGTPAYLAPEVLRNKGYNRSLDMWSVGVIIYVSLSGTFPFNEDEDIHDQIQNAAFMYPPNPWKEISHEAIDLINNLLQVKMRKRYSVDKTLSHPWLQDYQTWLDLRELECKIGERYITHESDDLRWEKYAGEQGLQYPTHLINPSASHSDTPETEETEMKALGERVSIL
# [4] = target: Insulin receptor (Homo sapiens, UniProt P06213); assay: Selectivity interaction (KinomeScan (DiscoverX)) EUB0001049a INSR; conditions: at 1 µM
# Chain of Insulin receptor (P06213 28-758 limits assumed): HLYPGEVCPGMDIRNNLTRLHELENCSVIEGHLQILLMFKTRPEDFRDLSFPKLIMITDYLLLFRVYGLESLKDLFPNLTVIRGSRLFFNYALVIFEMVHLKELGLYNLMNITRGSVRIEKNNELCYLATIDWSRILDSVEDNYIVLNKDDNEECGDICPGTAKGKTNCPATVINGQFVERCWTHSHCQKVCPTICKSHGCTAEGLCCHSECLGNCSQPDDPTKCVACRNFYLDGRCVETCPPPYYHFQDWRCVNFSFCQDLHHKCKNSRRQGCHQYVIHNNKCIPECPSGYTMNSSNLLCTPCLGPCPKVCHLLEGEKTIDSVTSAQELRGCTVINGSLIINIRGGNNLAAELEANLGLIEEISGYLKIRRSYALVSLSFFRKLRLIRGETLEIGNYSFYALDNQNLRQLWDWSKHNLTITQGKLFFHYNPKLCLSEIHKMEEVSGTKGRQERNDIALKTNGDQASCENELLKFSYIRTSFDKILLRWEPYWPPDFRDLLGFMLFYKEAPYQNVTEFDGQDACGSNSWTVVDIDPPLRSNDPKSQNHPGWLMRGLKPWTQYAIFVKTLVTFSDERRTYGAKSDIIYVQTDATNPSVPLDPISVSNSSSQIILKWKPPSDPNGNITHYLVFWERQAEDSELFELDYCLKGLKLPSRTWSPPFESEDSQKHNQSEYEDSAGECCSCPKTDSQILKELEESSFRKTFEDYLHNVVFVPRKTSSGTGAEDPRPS
# Chain of Insulin receptor (P06213 763-1382 limits assumed): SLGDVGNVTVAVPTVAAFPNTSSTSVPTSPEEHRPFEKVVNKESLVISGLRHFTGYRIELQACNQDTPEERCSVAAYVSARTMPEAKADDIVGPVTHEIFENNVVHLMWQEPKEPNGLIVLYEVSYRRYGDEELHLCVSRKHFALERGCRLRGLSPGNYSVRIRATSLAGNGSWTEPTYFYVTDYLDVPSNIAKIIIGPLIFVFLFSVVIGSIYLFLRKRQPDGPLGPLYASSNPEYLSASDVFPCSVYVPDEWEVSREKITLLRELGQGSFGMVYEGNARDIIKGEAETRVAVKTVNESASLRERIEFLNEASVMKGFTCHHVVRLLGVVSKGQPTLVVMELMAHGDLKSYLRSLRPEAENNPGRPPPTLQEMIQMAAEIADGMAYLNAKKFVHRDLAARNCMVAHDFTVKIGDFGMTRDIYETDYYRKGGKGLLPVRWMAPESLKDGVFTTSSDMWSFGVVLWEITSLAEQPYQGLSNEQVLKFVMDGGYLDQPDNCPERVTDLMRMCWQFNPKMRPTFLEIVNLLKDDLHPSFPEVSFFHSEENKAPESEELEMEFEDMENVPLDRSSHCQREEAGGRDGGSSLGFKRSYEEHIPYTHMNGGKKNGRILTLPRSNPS
# [5] = target: T2, Diacylglycerol kinase eta (Homo sapiens) (UniProt Q86XP1); assay: Selectivity interaction (Kinase panel (KiNativ target engagement assay in Jurkat cells)) EUB0001635a DGKH; assay type: cell-based; conditions: Selectivity number of off-targets 0.0, Selectivity number of targets 233.0, Source Knowledge https://www.sciencedirect.com/science/article/pii/S2451945619300674?via%3Dihub, at 1 µM
# T2 sequence (whole entry): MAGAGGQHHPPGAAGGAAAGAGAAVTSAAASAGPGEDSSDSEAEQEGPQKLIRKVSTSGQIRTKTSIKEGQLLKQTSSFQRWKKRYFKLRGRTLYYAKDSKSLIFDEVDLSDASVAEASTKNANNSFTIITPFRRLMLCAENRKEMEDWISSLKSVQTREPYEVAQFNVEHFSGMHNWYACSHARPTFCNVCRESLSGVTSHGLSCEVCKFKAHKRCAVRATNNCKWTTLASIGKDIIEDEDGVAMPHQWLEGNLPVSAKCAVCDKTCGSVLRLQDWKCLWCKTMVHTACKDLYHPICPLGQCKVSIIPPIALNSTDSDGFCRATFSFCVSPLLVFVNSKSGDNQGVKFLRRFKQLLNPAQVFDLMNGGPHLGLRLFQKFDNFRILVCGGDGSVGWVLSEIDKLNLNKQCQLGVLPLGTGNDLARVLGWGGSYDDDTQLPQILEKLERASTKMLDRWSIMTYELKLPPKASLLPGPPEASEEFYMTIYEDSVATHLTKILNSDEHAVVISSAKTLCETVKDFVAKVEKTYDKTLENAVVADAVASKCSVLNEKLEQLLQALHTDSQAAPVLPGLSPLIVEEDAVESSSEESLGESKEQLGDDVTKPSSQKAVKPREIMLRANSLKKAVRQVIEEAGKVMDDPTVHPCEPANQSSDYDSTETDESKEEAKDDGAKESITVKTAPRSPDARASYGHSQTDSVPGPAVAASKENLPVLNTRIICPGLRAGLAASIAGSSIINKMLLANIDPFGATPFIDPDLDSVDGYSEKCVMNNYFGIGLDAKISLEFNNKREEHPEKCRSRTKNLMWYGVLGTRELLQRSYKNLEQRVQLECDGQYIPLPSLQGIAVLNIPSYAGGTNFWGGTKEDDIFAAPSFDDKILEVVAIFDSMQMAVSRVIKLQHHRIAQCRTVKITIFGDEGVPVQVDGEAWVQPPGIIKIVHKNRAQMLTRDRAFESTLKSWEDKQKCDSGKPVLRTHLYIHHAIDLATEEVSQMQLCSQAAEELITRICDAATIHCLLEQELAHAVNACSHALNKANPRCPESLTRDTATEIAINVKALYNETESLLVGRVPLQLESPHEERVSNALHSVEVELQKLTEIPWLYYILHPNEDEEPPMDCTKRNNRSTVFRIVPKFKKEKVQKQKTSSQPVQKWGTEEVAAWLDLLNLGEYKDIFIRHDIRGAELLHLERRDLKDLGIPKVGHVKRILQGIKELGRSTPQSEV
# [6] = tested on: Tyrosine-protein kinase ABL1 (Homo sapiens), P00519 [Q252H]; assay: Selectivity interaction (KinomeScan (DiscoverX)) EUB0000229b ABL1; conditions: at 1 µM
# [7] = target: Receptor tyrosine-protein kinase erbB-2 (Homo sapiens, UniProt P04626); assay: Selectivity interaction (KinomeScan (DiscoverX)) EUB0000092b ERBB2; conditions: at 10 µM
# Chain of Receptor tyrosine-protein kinase erbB-2 (P04626 whole entry): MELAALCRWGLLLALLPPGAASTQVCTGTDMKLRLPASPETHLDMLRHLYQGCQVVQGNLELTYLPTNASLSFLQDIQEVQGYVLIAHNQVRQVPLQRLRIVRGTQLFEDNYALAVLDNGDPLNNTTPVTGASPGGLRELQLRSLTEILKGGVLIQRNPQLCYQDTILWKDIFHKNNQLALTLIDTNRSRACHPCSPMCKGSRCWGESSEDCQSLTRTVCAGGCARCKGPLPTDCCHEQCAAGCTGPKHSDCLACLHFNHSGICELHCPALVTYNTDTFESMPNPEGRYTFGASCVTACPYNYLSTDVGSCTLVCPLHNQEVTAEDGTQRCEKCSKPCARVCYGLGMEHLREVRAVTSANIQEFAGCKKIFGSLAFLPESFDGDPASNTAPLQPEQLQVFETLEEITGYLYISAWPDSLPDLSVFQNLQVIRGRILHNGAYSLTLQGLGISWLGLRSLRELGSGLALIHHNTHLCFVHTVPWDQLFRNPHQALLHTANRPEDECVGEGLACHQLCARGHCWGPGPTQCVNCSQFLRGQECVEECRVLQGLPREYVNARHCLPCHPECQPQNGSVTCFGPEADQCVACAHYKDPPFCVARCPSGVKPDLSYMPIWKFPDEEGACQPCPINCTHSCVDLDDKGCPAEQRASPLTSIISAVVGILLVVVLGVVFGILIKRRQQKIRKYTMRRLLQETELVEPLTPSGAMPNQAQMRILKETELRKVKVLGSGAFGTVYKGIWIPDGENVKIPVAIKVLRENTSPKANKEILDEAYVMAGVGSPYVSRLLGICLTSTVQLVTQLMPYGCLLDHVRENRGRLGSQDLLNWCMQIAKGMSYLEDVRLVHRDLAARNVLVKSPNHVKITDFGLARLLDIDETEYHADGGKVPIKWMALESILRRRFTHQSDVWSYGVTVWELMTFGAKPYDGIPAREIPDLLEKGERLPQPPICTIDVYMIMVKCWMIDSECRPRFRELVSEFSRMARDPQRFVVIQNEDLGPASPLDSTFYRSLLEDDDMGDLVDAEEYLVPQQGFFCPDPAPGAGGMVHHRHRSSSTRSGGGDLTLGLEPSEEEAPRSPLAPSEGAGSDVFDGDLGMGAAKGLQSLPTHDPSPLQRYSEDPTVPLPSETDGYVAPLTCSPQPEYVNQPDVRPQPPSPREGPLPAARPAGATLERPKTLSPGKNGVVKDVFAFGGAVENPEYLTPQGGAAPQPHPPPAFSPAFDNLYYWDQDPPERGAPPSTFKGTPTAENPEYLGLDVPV
# [8] = target: Vascular endothelial growth factor receptor 2 (Homo sapiens, UniProt P35968); assay: Selectivity interaction (CEREP Wide Ligand Profile screen (panel of receptors, ion channels, and transporters)) EUB0001542aTs KDR
# Chain of Vascular endothelial growth factor receptor 2 (P35968 whole entry): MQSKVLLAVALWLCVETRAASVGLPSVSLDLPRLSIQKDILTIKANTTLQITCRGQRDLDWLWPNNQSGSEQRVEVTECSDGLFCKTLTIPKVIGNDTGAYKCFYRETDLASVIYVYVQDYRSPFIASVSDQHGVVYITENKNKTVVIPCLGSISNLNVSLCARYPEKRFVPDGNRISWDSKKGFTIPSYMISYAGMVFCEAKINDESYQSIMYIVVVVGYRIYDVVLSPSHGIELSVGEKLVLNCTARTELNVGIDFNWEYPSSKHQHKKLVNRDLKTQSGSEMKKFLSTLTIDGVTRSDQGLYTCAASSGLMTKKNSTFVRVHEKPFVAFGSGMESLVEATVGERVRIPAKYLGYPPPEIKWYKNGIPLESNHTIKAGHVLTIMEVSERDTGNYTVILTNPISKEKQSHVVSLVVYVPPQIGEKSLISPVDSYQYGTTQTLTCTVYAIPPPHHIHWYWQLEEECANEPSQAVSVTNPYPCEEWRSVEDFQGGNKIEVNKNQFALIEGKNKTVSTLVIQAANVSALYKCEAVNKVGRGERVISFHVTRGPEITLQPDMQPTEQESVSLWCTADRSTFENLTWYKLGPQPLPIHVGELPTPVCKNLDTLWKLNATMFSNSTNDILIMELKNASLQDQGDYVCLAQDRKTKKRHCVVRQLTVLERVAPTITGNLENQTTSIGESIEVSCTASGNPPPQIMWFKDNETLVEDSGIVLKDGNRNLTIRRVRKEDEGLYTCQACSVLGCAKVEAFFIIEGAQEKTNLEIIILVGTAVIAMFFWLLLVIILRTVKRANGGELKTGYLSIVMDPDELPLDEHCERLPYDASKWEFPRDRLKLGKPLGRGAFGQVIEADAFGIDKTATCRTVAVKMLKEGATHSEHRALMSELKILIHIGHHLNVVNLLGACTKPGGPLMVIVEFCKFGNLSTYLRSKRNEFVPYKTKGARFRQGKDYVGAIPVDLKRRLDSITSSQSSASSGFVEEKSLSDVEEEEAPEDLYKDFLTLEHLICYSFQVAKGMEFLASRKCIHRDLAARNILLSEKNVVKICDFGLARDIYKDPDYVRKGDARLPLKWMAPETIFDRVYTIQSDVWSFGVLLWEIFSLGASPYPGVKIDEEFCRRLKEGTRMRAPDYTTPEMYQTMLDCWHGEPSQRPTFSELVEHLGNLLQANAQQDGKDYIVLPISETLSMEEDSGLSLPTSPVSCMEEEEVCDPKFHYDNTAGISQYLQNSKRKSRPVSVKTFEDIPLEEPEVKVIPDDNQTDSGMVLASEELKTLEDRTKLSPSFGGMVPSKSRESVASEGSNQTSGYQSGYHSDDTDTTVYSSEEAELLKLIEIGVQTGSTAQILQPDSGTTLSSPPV
smiles,measurement,setting,value
Cc1ccc(-c2ccc3c(ccc4sc5c(c43)NC[C@@H](C)NC5=O)n2)cn1,% of inhibition,[1],44%
Cc1cc(F)c(C(=O)Nc2cccc(-c3nncn3C(C)C)n2)cc1-n1cnc(C2CC2)c1,% of control,[2],78%
COCC(=O)NC/C=C/c1ccc2ncnc(Nc3ccc(Oc4ccc(C)nc4)c(C)c3)c2c1 [CP-724714],% of control,[3],85%
COc1cc(Nc2nc(C)cc(-c3cnn4nc(OC)ccc34)n2)cc(C(F)(F)F)c1,% of control,[4],71%
C=CC(=O)Nc1ccc(C(=O)Nc2[nH]nc3c2CN(C(=O)N[C@H](CN(C)C)c2ccccc2)C3(C)C)cc1,% of engagement,[5],16.5%
COc1cc(N(C)c2ccnc3ccc(C(F)(F)F)cc23)cc(OC)c1OC,% binding,[6],91%
CCC(=O)N1CCN(c2ccc(-n3c(=O)ccc4cnc5ccc(-c6cnc7ccccc7c6)cc5c43)cc2C(F)(F)F)CC1,% of control,[7],91%
Cn1cc(Nc2nccc(N3CC4CCC(C3)N4C(=O)[C@@H]3CC3(F)F)n2)cn1,IC50,[8],1600 nM
